Laboratory results as given in patent US20240024273A1, “TOPICAL ADMINISTRATION OF 2-(DIETHYLAMINO)ETHYL 2-(4-ISOBUTYLPHENYL)PROPRIONATE FOR TREATMENT OF DISEASES” (TECHFIELDS PHARMA CO., LTD., priority 2020, published 2024).

Tested on: Subjects with Osteoarthritis of the Knee
Assay: Second Phase 2 study: safety (treatment-emergent adverse events)
Type: in vivo, human
Set-up: Serious Treatment-emergent Adverse Event: SAE Criteria: scale not given here
Text: Safety assessments will be performed at each visit and will include assessment of AEs, vital signs (blood pressure, pulse rate, and oral temperature), clinical laboratories, physical examination, skin irritation, and electrocardiograms (ECGs) as indicated in the study flow chart, Table 47.
Safety assessments will include AEs, vital signs (blood pressures, pulse rate, and oral temperature), clinical laboratories, physical examination, skin irritation, and ECGs at various time points during the study as indicated in the study flow chart.
Adverse events of interest include: local skin reactions around the treated knee(s), upper stomach pain, GI bleeding, serious cardiovascular side effects (e.g., thrombotic events, myocardial infarction, or stroke), jaundice, elevated liver function tests, and nausea.
Safety analyses will be conducted on the SAS. Safety parameters will be listed and summarized using standard descriptive statistics, as appropriate. No formal statistical analyses are planned.

[1] = 4.375 mg, BID, subject 105/07/F64, abdominal aortic aneurysm
[2] = 8.75 mg, BID, subject 279/08/M66, Transient Ischemic Attack

CCN(CC)CCOC(=O)C(C)c1ccc(CC(C)C)cc1 (stereo not drawn) [2-(diethylamino)ethyl 2-(4-isobutylphenyl)propionate]
8(11.3%): Urinary Tract Infection: subjects with adverse events, number (percentage) (4.375 mg/knee, BID, N = 71)
2(2.8%): Contusion: subjects with adverse events, number (percentage) (4.375 mg/knee, BID, N = 71) | Throat Irritation: subjects with adverse events, number (percentage) (4.375 mg/knee, BID, N = 71)
1: Serious Treatment-emergent Adverse Event: SAE Criteria [1] | Abdominal Pain Upper: number of adverse events (4.375 mg/knee, BID, N = 71) | Abdominal Pain Upper: subjects with adverse events (4.375 mg/knee, BID, N = 71) | Administration Site Conditions: number of adverse events (4.375 mg/knee, BID, N = 71) | Administration Site Conditions: subjects with adverse events (4.375 mg/knee, BID, N = 71) | Alanine Aminotransferase Increased: number of adverse events (4.375 mg/knee, BID, N = 71) | Alanine Aminotransferase Increased: subjects with adverse events (4.375 mg/knee, BID, N = 71) | Application Site Irritation: number of adverse events (4.375 mg/knee, BID, N = 71) | Application Site Irritation: subjects with adverse events (4.375 mg/knee, BID, N = 71) | Blood Alkaline Phosphatase Increased: number of adverse events (4.375 mg/knee, BID, N = 71) | Blood Alkaline Phosphatase Increased: subjects with adverse events (4.375 mg/knee, BID, N = 71) | Blood Bilirubin Increased: number of adverse events (4.375 mg/knee, BID, N = 71) | Blood Bilirubin Increased: subjects with adverse events (4.375 mg/knee, BID, N = 71) | Cough: number of adverse events (4.375 mg/knee, BID, N = 71) | Ear and Labyrinth Disorders: number of adverse events (4.375 mg/knee, BID, N = 71) | Ear and Labyrinth Disorders: subjects with adverse events (4.375 mg/knee, BID, N = 71) | Fall: number of adverse events (4.375 mg/knee, BID, N = 71) | Headache: number of adverse events (4.375 mg/knee, BID, N = 71) | Hypercholesterolaemia: number of adverse events (4.375 mg/knee, BID, N = 71) | Hypercholesterolaemia: subjects with adverse events (4.375 mg/knee, BID, N = 71) | Hypertension: number of adverse events (4.375 mg/knee, BID, N = 71) | Hypertension: subjects with adverse events (4.375 mg/knee, BID, N = 71) | Nervous System Disorders: number of adverse events (4.375 mg/knee, BID, N = 71) | Rash: number of adverse events (4.375 mg/knee, BID, N = 71) | Rash: subjects with adverse events (4.375 mg/knee, BID, N = 71) | Rhinorrhoea: number of adverse events (4.375 mg/knee, BID, N = 71) | Skin Irritation: number of adverse events (4.375 mg/knee, BID, N = 71) | Skin Irritation: subjects with adverse events (4.375 mg/knee, BID, N = 71) | Transaminases Increased: number of adverse events (4.375 mg/knee, BID, N = 71) | Transaminases Increased: subjects with adverse events (4.375 mg/knee, BID, N = 71) | Vascular Disorders: number of adverse events (4.375 mg/knee, BID, N = 71) | Vascular Disorders: subjects with adverse events (4.375 mg/knee, BID, N = 71)
33.8%: incidence rate of AEs possibly, probably, or definitely related to study drug (4.375 mg/knee BID)
7.1%: positive fecal occult blood test incidence rate (8.75 mg/knee (BID))
6(8.5%): Respiratory, Thoracic and Mediastinal Disorders: subjects with adverse events, number (percentage) (4.375 mg/knee, BID, N = 71)
1(%)[1]: Back Pain: number of adverse events (4.375 mg/knee, BID, N = 71) | Back Pain: subjects with adverse events, number (percentage) (4.375 mg/knee, BID, N = 71) | Ear Pain: number of adverse events (4.375 mg/knee, BID, N = 71) | Ear Pain: subjects with adverse events (4.375 mg/knee, BID, N = 71) | Musculoskeletal Pain: number of adverse events (4.375 mg/knee, BID, N = 71) | Musculoskeletal Pain: subjects with adverse events, number (percentage) (4.375 mg/knee, BID, N = 71) | Neck Pain: number of adverse events (4.375 mg/knee, BID, N = 71) | Neck Pain: subjects with adverse events, number (percentage) (4.375 mg/knee, BID, N = 71)
6: Frequency of Positive Fecal Occult Blood Test (4.375 mg/knee, BID, N = 71) | Hypertriglyceridemia: number of adverse events (4.375 mg/knee, BID, N = 71) | Metabolism and Nutrition Disorders: subjects with adverse events (4.375 mg/knee, BID, N = 71) | Respiratory, Thoracic and Mediastinal Disorders: number of adverse events (4.375 mg/knee, BID, N = 71) | Serious Treatment-emergent Adverse Event: SAE Criteria [2]
Unrelated: Serious Treatment-emergent Adverse Event: Relationship to Study Drug [1]
Transient Ischemic Attack: Serious Treatment-emergent Adverse Event (8.75 mg, BID, subject 279/08/M66, [Thrombosis] (Vascular Disorders))
< 11 days: Serious Treatment-emergent Adverse Event: Duration [2]
4.2%: GI disorders incidence rate (4.375 mg/knee BID) | Aspartate Aminotransferase Increased: percentage of subjects with adverse events (4.375 mg/knee, BID, N = 71) | Gastrointestinal Disorders: percentage of subjects with adverse events (4.375 mg/knee, BID, N = 71)
5: Hypertriglyceridemia: subjects with adverse events (4.375 mg/knee, BID, N = 71) | Subjects with Positive Fecal Occult Blood Test (4.375 mg/knee, BID, N = 71)
28.6%: infections and infestations incidence rate (8.75 mg/knee (BID))
2: Contusion: number of adverse events (4.375 mg/knee, BID, N = 71) | Gamma-Glutamyltransferase Increased: number of adverse events (4.375 mg/knee, BID, N = 71) | Gamma-Glutamyltransferase Increased: subjects with adverse events (4.375 mg/knee, BID, N = 71) | Oropharyngeal Pain: number of adverse events (4.375 mg/knee, BID, N = 71) | Skin and Subcutaneous Tissue Disorders: number of adverse events (4.375 mg/knee, BID, N = 71) | Skin and Subcutaneous Tissue Disorders: subjects with adverse events (4.375 mg/knee, BID, N = 71) | Throat Irritation: number of adverse events (4.375 mg/knee, BID, N = 71) | Toothache: number of adverse events (4.375 mg/knee, BID, N = 71) | Toothache: subjects with adverse events (4.375 mg/knee, BID, N = 71) | White Blood Cell Count Decreased: number of adverse events (4.375 mg/knee, BID, N = 71) | White Blood Cell Count Decreased: subjects with adverse events (4.375 mg/knee, BID, N = 71)
41.4%: incidence rate of AEs possibly, probably, or definitely related to study drug (8.75 mg/knee (BID))
4: Abdominal Discomfort: number of adverse events (8.75 mg/knee, BID, N = 70)
8: Urinary Tract Infection: number of adverse events (4.375 mg/knee, BID, N = 71)
11: Investigations: number of adverse events (4.375 mg/knee, BID, N = 71) | Investigations: subjects with adverse events (4.375 mg/knee, BID, N = 71)
23(32.4%): Infections and Infestations: subjects with adverse events, number (percentage) (4.375 mg/knee, BID, N = 71)
7: Metabolism and Nutrition Disorders: number of adverse events (4.375 mg/knee, BID, N = 71)
2(1.4%): Oropharyngeal Pain: subjects with adverse events, number (percentage) (4.375 mg/knee, BID, N = 71)
1(1.4%): Cough: subjects with adverse events, number (percentage) (4.375 mg/knee, BID, N = 71) | Fall: subjects with adverse events, number (percentage) (4.375 mg/knee, BID, N = 71) | Headache: subjects with adverse events, number (percentage) (4.375 mg/knee, BID, N = 71) | Nervous System Disorders: subjects with adverse events, number (percentage) (4.375 mg/knee, BID, N = 71) | Rhinorrhoea: subjects with adverse events, number (percentage) (4.375 mg/knee, BID, N = 71)
7.0%: positive fecal occult blood test incidence rate (4.375 mg/knee BID) | Hypertriglyceridemia: percentage of subjects with adverse events (4.375 mg/knee, BID, N = 71) | Subjects with Positive Fecal Occult Blood Test, percentage (4.375 mg/knee, BID, N = 71)
32.4%: infections and infestations incidence rate (4.375 mg/knee BID)
15.5%: Investigations: percentage of subjects with adverse events (4.375 mg/knee, BID, N = 71)
14.3%: GI disorders incidence rate (8.75 mg/knee (BID))
24: Infections and Infestations: number of adverse events (4.375 mg/knee, BID, N = 71)
Recovered/: Serious Treatment-emergent Adverse Event: Outcome (8.75 mg, BID, subject 279/08/M66, Transient Ischemic Attack, cell wraps: Recovered/ resolved)
Severe: Serious Treatment-emergent Adverse Event: Severity [1] | Serious Treatment-emergent Adverse Event: Severity [2]
2.8%: Gamma-Glutamyltransferase Increased: percentage of subjects with adverse events (4.375 mg/knee, BID, N = 71) | Skin and Subcutaneous Tissue Disorders: percentage of subjects with adverse events (4.375 mg/knee, BID, N = 71) | Toothache: percentage of subjects with adverse events (4.375 mg/knee, BID, N = 71) | White Blood Cell Count Decreased: percentage of subjects with adverse events (4.375 mg/knee, BID, N = 71)
1.4%: Abdominal Pain Upper: percentage of subjects with adverse events (4.375 mg/knee, BID, N = 71) | Administration Site Conditions: percentage of subjects with adverse events (4.375 mg/knee, BID, N = 71) | Alanine Aminotransferase Increased: percentage of subjects with adverse events (4.375 mg/knee, BID, N = 71) | Application Site Irritation: percentage of subjects with adverse events (4.375 mg/knee, BID, N = 71) | Blood Alkaline Phosphatase Increased: percentage of subjects with adverse events (4.375 mg/knee, BID, N = 71) | Blood Bilirubin Increased: percentage of subjects with adverse events (4.375 mg/knee, BID, N = 71) | Ear and Labyrinth Disorders: percentage of subjects with adverse events (4.375 mg/knee, BID, N = 71) | Hypercholesterolaemia: percentage of subjects with adverse events (4.375 mg/knee, BID, N = 71) | Hypertension: percentage of subjects with adverse events (4.375 mg/knee, BID, N = 71) | Rash: percentage of subjects with adverse events (4.375 mg/knee, BID, N = 71) | Skin Irritation: percentage of subjects with adverse events (4.375 mg/knee, BID, N = 71) | Transaminases Increased: percentage of subjects with adverse events (4.375 mg/knee, BID, N = 71) | Vascular Disorders: percentage of subjects with adverse events (4.375 mg/knee, BID, N = 71)
Possible: Serious Treatment-emergent Adverse Event: Relationship to Study Drug (8.75 mg, BID, subject 279/08/M66, Transient Ischemic Attack, cell wraps: Possible / unrelated)
8.5%: Metabolism and Nutrition Disorders: percentage of subjects with adverse events (4.375 mg/knee, BID, N = 71)
abdominal aortic aneurysm: Serious Treatment-emergent Adverse Event (4.375 mg, BID, subject 105/07/F64, [aortic aneurysm] (Blood and Lymphatic System Disorders))
Death: Serious Treatment-emergent Adverse Event: Outcome (4.375 mg, BID, subject 105/07/F64, abdominal aortic aneurysm, cell wraps: Results / in / Death)
3: Aspartate Aminotransferase Increased: number of adverse events (4.375 mg/knee, BID, N = 71) | Aspartate Aminotransferase Increased: subjects with adverse events (4.375 mg/knee, BID, N = 71) | Gastrointestinal Disorders: number of adverse events (4.375 mg/knee, BID, N = 71) | Gastrointestinal Disorders: subjects with adverse events (4.375 mg/knee, BID, N = 71) | Influenza: number of adverse events (4.375 mg/knee, BID, N = 71) | Injury, Poisoning and Procedural Complications: number of adverse events (4.375 mg/knee, BID, N = 71) | Musculoskeletal and Connective Tissue Disorders, Overall Total: number of adverse events (4.375 mg/knee, BID, N = 71)
12: Upper Respiratory Tract Infection: number of adverse events (4.375 mg/knee, BID, N = 71)
